Experimental data: PubChem BioAssay AID1626 (SRMLSC, 2009)

System: M. tuberculosis H37Rv growth inhibition
Assay: M. tuberculosis H37Rv growth inhibitors, H37Rv strain (AID 1626)
Conditions: for IC90: measured here: IC90 against H37Rv; for CC50: measured here: Vero cell cytotoxicity

Which results are given for `CCCOC(=O)c1ccc(NC(=O)/C=C/c2cccs2)cc1`?
IC50: 4.12 µM; IC90: 21.8 µM

`CCCCCCCCCCNC(=O)C(=O)Nc1ccccn1` was tested. Which IC50 did it give?
The IC50 was 6.97 µM.

What about the IC90 of the same compound?
The IC90 was > 100 µM.

What does the source list for `O=C1c2cccc3cc([N+](=O)[O-])cc(c23)C(=O)N1CCN1CCCC1`?
IC50: 4.6 µM; IC90: 5.71 µM; CC50: 1.8 µM

What does the source list for `COc1cc(CNCCc2ccccc2)cc(Cl)c1OCc1ccccc1`?
IC50: 8.64 µM; IC90: 11 µM; CC50: 27.8 µM

`COC(=O)c1nc(-c2ccc3c(n2)C(=O)C(N)=C(OC)C3=O)c(N)c(-c2ccc(OC)c(OC)c2O)c1C` was tested. Which IC90 did it give?
Its IC90 is > 100 µM.

And the CC50?
The CC50 was 1.35 µM.

For `O=C(Nc1cccc2ccccc12)c1ccc([N+](=O)[O-])s1`, which IC50 is on record?
The IC50 was 51.4 µM.

And the IC90?
The IC90 was > 100 µM.

Which IC50 does the source give for `Cn1ncc2c(Nc3cccc(Cl)c3)nc(Nc3cccc(Cl)c3)nc21` here?
Its IC50 is 11.7 µM.

And the IC90?
Its IC90 is 23.6 µM.

What about the CC50 of the same compound?
The CC50 was 26.9 µM.

For `COc1ccc(N=C2C(=O)Nc3ccccc32)cc1`, which IC90 is on record?
The IC90 was > 100 µM.

For `COC(=O)c1ccnc(SCC(=O)c2ccccc2)c1`, which IC50 is on record?
The IC50 was 15.8 µM.

What about the IC90 of the same compound?
The IC90 was 26.6 µM.

`O=C1CCCCc2sc(Br)c([N+](=O)[O-])c2N1` was tested. Which IC50 did it give?
Its IC50 is 8.43 µM.

What about the IC90 of the same compound?
The IC90 was 15.4 µM.

And the CC50?
The CC50 was 14.4 µM.

How did the IC50 turn out when `Cc1nc(SCC(=O)Nc2cc(C)on2)c2c3c(sc2n1)CCCC3` was run?
The IC50 was < 0.195 µM.

And the IC90?
The IC90 was 13.8 µM.

What about the CC50 of the same compound?
The CC50 was 21 µM.

Which IC50 does the source give for `O=[N+]([O-])c1cc2cccnc2c2ncccc12` here?
The IC50 was 1.4 µM.

And the IC90?
The IC90 was 1.49 µM.

What about the CC50 of the same compound?
Its CC50 is 33 µM.

What does the source list for `CCCCCCc1ccc(OCC(=O)OC)cc1OCC(=O)OC`?
IC50: 1.82 µM; IC90: 20.1 µM

With `CCCn1c(=N)c(C(=O)NCc2ccc3c(c2)OCO3)cc2c(=O)n3cccc(C)c3nc21` as the compound, how does the IC50 read?
Its IC50 is 19.6 µM.

What about the IC90 of the same compound?
The IC90 was 31.7 µM.

And the CC50?
Its CC50 is > 40 µM.

Which IC50 does the source give for `Nc1nc(N)c2cc(Sc3ccc4ccccc4c3)ccc2n1` here?
Its IC50 is 1.61 µM.

And the IC90?
Its IC90 is 3.16 µM.

And the CC50?
The CC50 was 1.01 µM.

For `O=C(Nc1ccc(Oc2ccccc2)cc1)C1CC1`, which IC50 is on record?
The IC50 was 14 µM.

What about the IC90 of the same compound?
The IC90 was > 100 µM.

And the CC50?
The CC50 was > 40 µM.

How did the IC50 turn out when `CCOC(=O)c1c(-c2ccccc2)csc1NC(=O)c1cc2ccccc2oc1=O` was run?
The IC50 was < 0.195 µM.

What about the IC90 of the same compound?
The IC90 was 0.623 µM.

And the CC50?
The CC50 was > 40 µM.

Which results are given for `CCOC(=O)COc1cc(OCC(=O)OCC)c2c(=O)cc(-c3ccccc3)oc2c1`?
IC50: 1.37 µM; IC90: 3.74 µM

`Clc1cccc2c1Sc1ccccc1CC2N1CCNCC1` (centres undefined) was tested. Which IC50 did it give?
The IC50 was 3.12 µM.

What about the IC90 of the same compound?
Its IC90 is 6.58 µM.

What about the CC50 of the same compound?
The CC50 was 11.2 µM.

With `Nc1ccccc1SCC(=O)Nc1nc(-c2ccccc2)cs1` as the compound, how does the IC90 read?
The IC90 was > 100 µM.

And the CC50?
The CC50 was > 40 µM.

What does the source list for `Cc1cc(NC(=O)c2ccccc2)n(-c2nc3ccccc3[nH]2)n1`?
IC50: 60.4 µM; IC90: > 100 µM; CC50: 27.9 µM

Which results are given for `O=c1nc2c(O)cccn2c2c1c(=O)[nH]c1ccccc12`?
IC50: 6.69 µM; IC90: 12.4 µM

What does the source list for `Cc1cc2ncn(/N=C/c3ccc([N+](=O)[O-])s3)c2cc1C`?
IC50: < 0.195 µM; IC90: 0.282 µM; CC50: 8.74 µM

`CN1/C(=C/C(=O)c2nc(S(C)(=O)=O)ncc2Cl)C(C)(C)c2ccccc21` was tested. Which IC50 did it give?
Its IC50 is 12 µM.

What about the IC90 of the same compound?
The IC90 was 13.7 µM.

What about the CC50 of the same compound?
Its CC50 is > 40 µM.

What does the source list for `Cc1ccc(NC(NC(=O)c2cccs2)C(Cl)(Cl)Cl)cc1C` (centres undefined)?
IC50: 24.3 µM; IC90: > 100 µM; CC50: > 40 µM

How did the IC50 turn out when `Cc1ccc(Cc2cnc(NC(=O)C3=NCCN3)s2)cc1` was run?
Its IC50 is 2.07 µM.

What about the IC90 of the same compound?
The IC90 was 7.96 µM.

For `CN1CCN(C2=Cc3ccccc3Sc3cc(F)c(Cl)cc32)CC1`, which IC50 is on record?
The IC50 was 11.6 µM.

And the IC90?
Its IC90 is 13.2 µM.

What about the CC50 of the same compound?
Its CC50 is 36.4 µM.

`CCN(CC)CCCNc1nc2cc(OC)c(OC)cc2c2nc(-c3ccccc3)nn12` was tested. Which IC50 did it give?
The IC50 was 9.3 µM.

And the IC90?
Its IC90 is 13.8 µM.

What about the CC50 of the same compound?
The CC50 was > 40 µM.

How did the IC50 turn out when `Nc1c(C(=O)NCc2ccccc2)c2nc3ccccc3nc2n1CCCN1CCOCC1` was run?
Its IC50 is 12.7 µM.

And the IC90?
Its IC90 is 17.1 µM.

What about the CC50 of the same compound?
Its CC50 is > 40 µM.

Which IC50 does the source give for `CCOc1ccc(-c2nnc(N)o2)cc1` here?
The IC50 was 57.8 µM.

What about the IC90 of the same compound?
The IC90 was > 100 µM.

Which results are given for `Clc1ccc2c(c1)C(c1ccccc1Cl)=NCc1nnc(N3CCN(CCOc4ccccc4)CC3)n1-2`?
IC50: 12.5 µM; IC90: 16.7 µM; CC50: > 40 µM

With `COc1ccc(N2CCN(c3nc(NC(C)(C)C)nc(N4CCCCC4)n3)CC2)cc1` as the compound, how does the IC50 read?
The IC50 was 3.75 µM.

What about the IC90 of the same compound?
The IC90 was 5.86 µM.

What about the CC50 of the same compound?
Its CC50 is > 40 µM.

How did the IC90 turn out when `Nc1nnc(SCc2ccc(F)cc2)s1` was run?
The IC90 was > 100 µM.
